Assay results as given in patent publication US20010039287A1, “AROMATIC SULFONE HYDROXAMIC ACID METALLOPROTEASE INHIBITOR” (priority 1997, published 2001).
Structures can show the parent of a compound that is named as a salt. Where two headings read alike, the source gives them in different places.

Assays:
[1] = Rat Intravenous 20 mpk
recombinant human MMP-2 = target: T1, recombinant human MMP-2 (Homo sapiens, UniProt P08253); assay: biochemical; settings: read-out: MMP-2 IC50
T1 sequence (P08253 110-660): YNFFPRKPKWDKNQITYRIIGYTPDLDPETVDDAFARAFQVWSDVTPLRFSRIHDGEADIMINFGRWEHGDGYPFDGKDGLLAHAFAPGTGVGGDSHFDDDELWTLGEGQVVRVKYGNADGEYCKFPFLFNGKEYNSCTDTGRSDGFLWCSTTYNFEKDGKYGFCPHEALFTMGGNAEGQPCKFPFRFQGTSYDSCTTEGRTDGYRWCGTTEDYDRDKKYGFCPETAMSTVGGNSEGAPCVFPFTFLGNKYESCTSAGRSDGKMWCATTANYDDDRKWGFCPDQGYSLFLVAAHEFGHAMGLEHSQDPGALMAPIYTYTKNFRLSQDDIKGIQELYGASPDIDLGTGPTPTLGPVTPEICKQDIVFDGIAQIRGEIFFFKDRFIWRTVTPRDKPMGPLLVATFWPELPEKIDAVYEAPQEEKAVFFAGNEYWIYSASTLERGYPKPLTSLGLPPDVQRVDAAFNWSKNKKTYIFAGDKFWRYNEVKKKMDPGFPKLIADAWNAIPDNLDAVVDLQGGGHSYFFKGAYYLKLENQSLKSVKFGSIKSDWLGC

recombinant human MMP-1 = target: T2, recombinant human MMP-1 (Homo sapiens, UniProt P03956); assay: biochemical; settings: read-out: MMP-1 IC50
T2 construct: made in house; host or cells: transfected HT-1080 cells (provided by Dr. Harold Welgus, Washington University)
T2 sequence (P03956 100-469): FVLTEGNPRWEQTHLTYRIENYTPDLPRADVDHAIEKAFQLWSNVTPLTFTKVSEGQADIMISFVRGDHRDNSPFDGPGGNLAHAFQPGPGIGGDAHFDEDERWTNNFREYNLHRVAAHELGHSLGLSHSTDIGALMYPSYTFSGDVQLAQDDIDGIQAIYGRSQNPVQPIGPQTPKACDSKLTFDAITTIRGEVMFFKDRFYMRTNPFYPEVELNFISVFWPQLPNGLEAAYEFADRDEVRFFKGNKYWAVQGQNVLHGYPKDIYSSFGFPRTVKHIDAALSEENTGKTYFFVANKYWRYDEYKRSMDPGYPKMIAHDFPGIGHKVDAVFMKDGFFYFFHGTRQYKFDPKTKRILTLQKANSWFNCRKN

recombinant human MMP-9 = recombinant human MMP-9 (Homo sapiens, UniProt P14780); assay: biochemical; settings: read-out: MMP-9 IC50
Sequence of recombinant human MMP-9 (P14780 107-707 limits assumed): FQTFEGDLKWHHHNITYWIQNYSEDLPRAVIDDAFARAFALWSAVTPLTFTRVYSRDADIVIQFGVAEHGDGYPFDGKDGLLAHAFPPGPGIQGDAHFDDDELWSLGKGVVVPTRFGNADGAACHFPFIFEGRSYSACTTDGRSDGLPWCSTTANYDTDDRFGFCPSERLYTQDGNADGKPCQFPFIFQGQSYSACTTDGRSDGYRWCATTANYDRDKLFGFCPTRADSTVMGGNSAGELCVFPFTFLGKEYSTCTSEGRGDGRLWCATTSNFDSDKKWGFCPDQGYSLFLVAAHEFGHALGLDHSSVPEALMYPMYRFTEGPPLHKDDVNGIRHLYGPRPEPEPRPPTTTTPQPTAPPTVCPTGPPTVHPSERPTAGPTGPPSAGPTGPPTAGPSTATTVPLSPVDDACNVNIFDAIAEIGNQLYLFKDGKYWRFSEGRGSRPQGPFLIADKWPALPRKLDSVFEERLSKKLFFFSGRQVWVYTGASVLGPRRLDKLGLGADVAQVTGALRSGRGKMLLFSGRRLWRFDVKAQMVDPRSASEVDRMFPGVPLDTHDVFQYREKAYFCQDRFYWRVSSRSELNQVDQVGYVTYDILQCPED

recombinant human MMP-13 = recombinant human MMP-13 (Homo sapiens, UniProt P45452); assay: biochemical; settings: read-out: MMP-13 IC50

For `Cl.O=C(NO)C1(S(=O)(=O)c2ccc(Oc3ccc(OC(F)(F)F)cc3)cc2)CCNCC1` [Example 410, N-hydroxy-4-[[4-[(trifluoromethoxy)phenoxy]phenyl]sulfonyl]-4-piperidinecarboxamide, Monohydrochloride], the “t½ Hour” value [1] was 1.78 h.

In the case of `CCN1CCC(C(=O)NO)(S(=O)(=O)c2ccc(OCc3ccc(C(F)(F)F)cc3)cc2)CC1.Cl` [Example 438, 1-ethyl-N-hydroxy-4-[[4-[[4-[trifluoromethyl)phenyl]methoxy]-phenyl]sulfonyl]-4-piperidine-carboxamide, Monohydrochloride], the “t½ Hour” value [1] is reported as 2.14 h.

For `O=C(NO)C1(S(=O)(=O)c2ccc(Oc3ccc(SC(F)(F)F)cc3)cc2)CCOCC1` [Example 382, Tetrahydro-N-hydroxy-4-[[4-[4-[(trifluoromethyl)thio]phenoxy]phenyl]-sulfonyl]-2H-pyran-4-carboxamide], the “t½ Hour” value [1] was 1.71 h.

In the case of `Cc1cc(Oc2ccc(S(=O)(=O)C3(C(=O)NO)CCNCC3)cc2)ccc1Cl.Cl` [Example 79], the “t½ Hour” value [1] is reported as 1.82 h.

In the case of `Cl.O=C(NO)C1(S(=O)(=O)c2ccc(Oc3ccc(C(F)(F)F)cc3)cc2)CCN(C2CC2)CC1` [Example 427, 1-cyclopropyl-N-hydroxy-4-[[4-[4-(trifluoromethyl)phenoxy]phenyl]sulfonyl]-4-piperidinecarboxamide, Monohydrochloride], the “t½ Hour” value [1] is reported as 2.85 h.

In the case of `O=C(NO)C1(S(=O)(=O)c2ccc(Oc3ccc(Cl)cc3)cc2)CCOCC1` [Example 100, 4-[[4-(4-chlorophenoxy)-phenyl]sulfonyl]-tetrahydro-N-hydroxy-2H-pyran-4-carboxamide], the “t½ Hour” value [1] is reported as 1.50 h.

Compound `O=C(O)CN1CCC(C(=O)NO)(S(=O)(=O)c2ccc(Oc3ccc(Cl)cc3)cc2)CC1` [Example 88, 4-[[4-(4-chlorophenoxy)-phenyl]sulfonyl]-4-[(hydroxyamino)-carbonyl]-1-piperidineacetic Acid, Monohydrochloride] has an IC50 (recombinant human MMP-2; Inhibition Table B) of 0.2 nM, an IC50 (recombinant human MMP-1; Inhibition Table B) of 1100 nM and an IC50 (recombinant human MMP-9; Inhibition Table B) of 0.5 nM. For the same compound, the IC50 (recombinant human MMP-13; Inhibition Table B) was 0.2 nM.

With `C#CCN1CCC(C(=O)NO)(S(=O)(=O)c2ccc(Oc3ccc(C(C)C)cc3)cc2)CC1.Cl` [Example 414, N-hydroxy-4-[[4-[4-(1-methylethyl)phenoxy]phenyl]sulfonyl]-1-(2-propynyl)-4-piperidinecarboxamide, Monohdyrochloride] the “t½ Hour” value [1] was 0.73 h.

`O=C(NO)C1(S(=O)(=O)c2ccc(Oc3ccccc3)cc2)CCS(=O)(=O)CC1` [Example 110] showed an IC50 (recombinant human MMP-2; Inhibition Table B) of 0.4 nM, an IC50 (recombinant human MMP-1; Inhibition Table B) of 2700 nM and an IC50 (recombinant human MMP-9; Inhibition Table B) of 10 nM. It also gave an IC50 (recombinant human MMP-13; Inhibition Table B) of 0.5 nM.

With `O=C(NO)C1(S(=O)(=O)c2ccc(Oc3ccc(C(F)(F)F)cc3)cc2)CCN(Cc2cccnc2)CC1` [Example 390, N-hydroxy-1-(3-pyridinylmethyl)-4-[[4-[4-trifluoromethyl)phenoxy]phenyl]-sulfonyl]-4-piperidinecarboxamide, Dihydrochloride] the “t½ Hour” value [1] was 1.50 h.

`Cc1ccc(Oc2ccc(S(=O)(=O)C3(C(=O)NO)CCOCC3)cc2)cc1C` [Example 96, 4-[[4-(3,4-dimethyl-phenoxy)phenyl]ssulfonyl]tetrahydro-N-hydroxy-2H-pyran-4-carboxamide] gave an IC50 (recombinant human MMP-2; Inhibition Table B) of 0.2 nM, an IC50 (recombinant human MMP-1; Inhibition Table B) of 5000 nM and an IC50 (recombinant human MMP-9; Inhibition Table B) of 1.3 nM. It also gave an IC50 (recombinant human MMP-13; Inhibition Table B) of 0.3 nM.

Work on `O=C(CS(=O)(=O)c1ccc(Oc2ccccc2)cc1)NO` [Example 1] yielded an IC50 (recombinant human MMP-2; Inhibition Table A) of 2.6 nM, an IC50 (recombinant human MMP-1; Inhibition Table A) of 6600 nM and an IC50 (recombinant human MMP-9; Inhibition Table A) of 31.6 nM. The IC50 (recombinant human MMP-13; Inhibition Table A) was 5.1 nM.

`O=C(O)CN1CCC(C(=O)NO)(S(=O)(=O)c2ccc(Sc3ccccc3)cc2)CC1` [Example 87, 4-[(hydroxyamino)-carbonyl]-4-[[4-(phenylthio)phenyl]-sulfonyl]-1-piperidineacetic Acid, Monohydrochloride] showed an IC50 (recombinant human MMP-2; Inhibition Table B) of 0.8 nM, an IC50 (recombinant human MMP-1; Inhibition Table B) of 7200 nM and an IC50 (recombinant human MMP-9; Inhibition Table B) of 13.9 nM. It also gave an IC50 (recombinant human MMP-13; Inhibition Table B) of 0.35 nM.

With `CS(=O)(=O)N1CCC(C(=O)NO)(S(=O)(=O)c2ccc(Oc3ccc4c(c3)OCO4)cc2)CC1` [Example 42, 4-[[4-(1,3-benzodioxol-5-yloxy)phenyl]sulfonyl]-N-hydroxy-1-(methylsulfonyl)-4-piperidinecarboxamide] the IC50 (recombinant human MMP-2; Inhibition Table B) was 0.2 nM, the IC50 (recombinant human MMP-1; Inhibition Table B) was 2200 nM and the IC50 (recombinant human MMP-9; Inhibition Table B) was 1.3 nM. It also gave an IC50 (recombinant human MMP-13; Inhibition Table B) of 0.4 nM.

In the case of `COCCN1CCC(C(=O)NO)(S(=O)(=O)c2ccc(Oc3ccccc3)cc2)CC1` [Example 30], the IC50 (recombinant human MMP-2; Inhibition Table B) is reported as 0.1 nM, the IC50 (recombinant human MMP-1; Inhibition Table B) is reported as 350 nM and the IC50 (recombinant human MMP-9; Inhibition Table B) is reported as 0.3 nM. It also gave an IC50 (recombinant human MMP-13; Inhibition Table B) of 0.1 nM.

Compound `NCCc1ccc(Oc2ccc(S(=O)(=O)C3(C(=O)NO)CCSCC3)cc2)cc1` [Example 116, tetrahydro-N-hydroxy-4-[[4-[4-tyramine)phenoxy]phenyl] Sulfonyl 2H-thiopyran-4-carboxamide] has an IC50 (recombinant human MMP-2; Inhibition Table B) of 2 nM, an IC50 (recombinant human MMP-1; Inhibition Table B) of 2350 nM and an IC50 (recombinant human MMP-9; Inhibition Table B) of 15.3 nM. The IC50 (recombinant human MMP-13; Inhibition Table B) was 5.5 nM.

With `O=C(NO)C1(S(=O)(=O)c2ccc(N3CCC(Oc4ccc5c(c4)OCO5)CC3)cc2)CCOCC1` [Example 63, 4-[[4-[4-(1,3-Benzodioxol-5-yloxy)-1-piperidinyl]phenyl]sulfonyl]-tetrahydro-N-hydroxy-2H-pyran-4-carboxamide, Monohydrochloride] the IC50 (recombinant human MMP-2; Inhibition Table B) was 18.1 nM, the IC50 (recombinant human MMP-1; Inhibition Table B) was > 10000 nM and the IC50 (recombinant human MMP-9; Inhibition Table B) was 530 nM. It also gave an IC50 (recombinant human MMP-13; Inhibition Table B) of 1.5 nM.

For `COCCN1CCC(C(=O)NO)(S(=O)(=O)c2ccc(Oc3ccc(OC(F)(F)F)cc3)cc2)CC1.Cl` [Example 416, N-hydroxy-1-(2-methoxyethyl)-4-[[4-[4-(trifluoromethoxy)phenoxy]phenyl]sulfonyl}-4-piperidinecarboxamide, Monohydrochloride], the “t½ Hour” value [1] was 2.94 h.

`O=C(NO)C1(S(=O)(=O)c2ccc(Oc3ccc(-n4cncn4)cc3)cc2)CCOCC1` [Example 26] gave an IC50 (recombinant human MMP-2; Inhibition Table A) of 0.2 nM, an IC50 (recombinant human MMP-1; Inhibition Table A) of 7700 nM and an IC50 (recombinant human MMP-9; Inhibition Table A) of 7 nM. For the same compound, the IC50 (recombinant human MMP-13; Inhibition Table A) was 0.5 nM.

`O=C(NO)C1(S(=O)(=O)c2ccc(Sc3ccc(O)cc3)cc2)CCSCC1` [Example 114] showed an IC50 (recombinant human MMP-2; Inhibition Table B) of 0.65 nM, an IC50 (recombinant human MMP-1; Inhibition Table B) of 3000 nM and an IC50 (recombinant human MMP-9; Inhibition Table B) of 31.6 nM. The IC50 (recombinant human MMP-13; Inhibition Table B) was 0.4 nM.

Work on `O=C(NO)C1(S(=O)(=O)c2ccc(-c3ccc(Cl)cc3)cc2)CCNCC1` [Example 91, 4-[(4′-chloro[1,1′-biphenyl]-4-yl)sulfonyl]-N-hydroxy-4-piperidinecarboxamide, Monohydrochloride] yielded an IC50 (recombinant human MMP-2; Inhibition Table B) of 1.5 nM, an IC50 (recombinant human MMP-1; Inhibition Table B) of 1800 nM and an IC50 (recombinant human MMP-9; Inhibition Table B) of 40 nM. The IC50 (recombinant human MMP-13; Inhibition Table B) was 2.1 nM.

With `O=C(NO)C1(S(=O)(=O)c2ccc(Oc3ccc(C(F)(F)F)cc3)cc2)CCN(Cc2ccccn2)CC1` [Example 391, N-hydroxy-1-(2-pyridinylmethyl)-4-[[4-[4-(trifluoromethyl)phenoxy]phenyl]-sulfonyl]-4-piperidinecarboxamide, Dihydrochloride] the “t½ Hour” value [1] was 1.45 h.

In the case of `CCCCOC1CCN(c2ccc(S(=O)(=O)C3(C(=O)NO)CCOCC3)cc2)CC1` [Example 16], the IC50 (recombinant human MMP-2; Inhibition Table A) is reported as 100 nM, the IC50 (recombinant human MMP-1; Inhibition Table A) is reported as > 10000 nM and the IC50 (recombinant human MMP-9; Inhibition Table A) is reported as 2500 nM. For the same compound, the IC50 (recombinant human MMP-13; Inhibition Table A) was 2.4 nM.

Work on `O=C(NO)C1(S(=O)(=O)c2ccc(Oc3ccc(Cl)cc3)cc2)CCN(CCN2CCOCC2)CC1` [Example 89, 4-[[4-(4-chlorophenoxy)-phenyl]sulfonyl]-N-hydroxy-1-[2-(4-morpholinyl)ethyl]-4-piperidine-carboxamide, Dihydrochloride] yielded an IC50 (recombinant human MMP-2; Inhibition Table B) of 0.15 nM, an IC50 (recombinant human MMP-1; Inhibition Table B) of 1200 nM and an IC50 (recombinant human MMP-9; Inhibition Table B) of 0.4 nM. It also gave an IC50 (recombinant human MMP-13; Inhibition Table B) of 0.25 nM.

For `C#CCN1CCC(C(=O)NO)(S(=O)(=O)c2ccc(Oc3ccc(Cl)cc3)cc2)CC1` [Example 85, 4-[[4-(4-chlorophenoxy)-phenyl]sulfonyl]-N-hydroxy-1-(2-propynyl)-4-piperidinecarboxamide, Monohydrochloride], the IC50 (recombinant human MMP-2; Inhibition Table B) was < 0.1 nM, the IC50 (recombinant human MMP-1; Inhibition Table B) was 500 nM and the IC50 (recombinant human MMP-9; Inhibition Table B) was 0.4 nM. For the same compound, the IC50 (recombinant human MMP-13; Inhibition Table B) was < 0.1 nM.

In the case of `C#CCN1CCC(C(=O)NO)(S(=O)(=O)c2ccc(Oc3ccc(OC)c(OC)c3)cc2)CC1` [Example 38, 4-[[4-(3,4-dimethoxyphenoxy)phenyl]sulfonyl]-N-hydroxy-1-(2-propynyl)-4-piperidinecarboxamide, Monohydrochloride], the IC50 (recombinant human MMP-2; Inhibition Table B) is reported as 20 nM, the IC50 (recombinant human MMP-1; Inhibition Table B) is reported as > 10000 nM and the IC50 (recombinant human MMP-9; Inhibition Table B) is reported as 135 nM. The IC50 (recombinant human MMP-13; Inhibition Table B) was 22 nM.

In the case of `O=C(NO)C1(S(=O)(=O)c2ccc(Sc3ccncc3)cc2)CCSCC1` [Example 119, tetrahydro-N-hydroxy-4-[[4-(4-pyridinylthio)-phenyl]sulfonyl]-2H-thiopyran-4-carboxamide, Monohydrochloride], the IC50 (recombinant human MMP-2; Inhibition Table B) is reported as 1.5 nM, the IC50 (recombinant human MMP-1; Inhibition Table B) is reported as > 10000 nM and the IC50 (recombinant human MMP-9; Inhibition Table B) is reported as 30 nM. For the same compound, the IC50 (recombinant human MMP-13; Inhibition Table B) was 1.7 nM.
